Patent publication US7268152B2, “Glucocorticoid mimetics, methods of making them, pharmaceutical compositions, and uses thereof” (Boehringer Ingelheim Pharmaceuticals, Inc., priority 2002, dated 2007)

Legend:
[1] = system: glucocorticoid receptor; test: One or more of the above assays (GR binding and GR cell assays; not specified which); format: cell-based; conditions: in one or more of the above assays
Method: This assay uses fluorescence polarization (FP) to quantitate the ability of test compounds to compete with tetramethyl rhodamine (TAMRA)-labeled dexamethasone for binding to a human glucocorticoid receptor (GR) complex prepared from an insect expression system. The assay buffer was: 10 mM TES, 50 mM KCl, 20 mM Na2MoO4.2H2O, 1.5 mM EDTA, 0.04% w/v CHAPS, 10% v/v glycerol, 1 mM dithiothreitol, pH 7.4. Test compounds were dissolved to 1 mM in neat DMSO and then further diluted to 10×assay concentration in assay buffer supplemented with 10% v/v DMSO. Test compounds were serially diluted at 10×assay concentrations in 10% DMSO-containing buffer in 96-well polypropylene plates. […] Positive controls were reaction mixtures containing no test compound; negative controls (blanks) were reaction mixtures containing 0.7 μM to 2 μM dexamethasone. […] IC50 values were determined by iterative non-linear curve fitting of the FP signal data to a 4-parameter logistic equation.
B. Glucocorticoid Receptor Cell Assays
1. Induction of Aromatase in Fibroblasts (Cell Assay for Transactivation)
Dexamethasone, a synthetic ligand to the glucocorticoid receptor (GR), induces expression of aromatase in human foreskin fibroblast cells. The activity of aromatase is measured by the conversion of testosterone to estradiol in culture media.
On the day of the experiment, the media in the wells is replaced with fresh media. Cells are treated with test compounds to final concentrations of 10^−5 M to 10 ^−8 M, and testosterone to a final concentration of 300 ng/mL. Each well has a total volume of 100 μL. Samples are made in duplicates. Control wells include: (a) wells that receive testosterone only, and (b) wells that receive testosterone plus 2 μM of dexamethasone to provide maximum induction of aromatase. Plates are incubated at 37° C. overnight (15 to 18 hours), and supernatants are harvested at the end of incubation. […] The amount of estradiol is inversely proportional to the ELISA signals in each well. The extent of aromatase induction by test compounds is expressed as a relative percentage to dexamethasone. EC50 values of test compounds are derived by non-linear curve fitting.
2. Inhibition of IL-6 Production in Fibroblasts (Cell Assay for Transrepression)
Human foreskin fibroblast cells produce IL-6 in response to stimulation by pro-inflammatory cytokine IL-1.
On the next day, media in the wells is replaced with fresh media. Cells are treated with IL-1 (rhIL-1α, R&D Systems Cat. No. 200-LA) to a final concentration of 1 ng/mL, and with test compounds to final concentrations of 10 ^−5 M to 10 ^−8 M, in a total volume of 200 μL per well. Samples are done in duplicates. […] Positive control wells receive IL-1 only and represent maximum (or 100%) amount of IL-6 production. Plates are incubated at 37° C. overnight (15 to 18 hours), and supernatants are harvested at the end of incubation. IL-6 levels in the supernatants are determined by the ELISA kits for IL-6 (MedSystems Diagnostics GmbH, Vienna, Austria, Cat. No. BMS213TEN) according to manufacture's instructions. The extent of inhibition of IL-6 by test compounds is expressed in percentage relative to positive controls. IC50 values of test compounds are derived by non-linear curve fitting.
Evaluation of agonist or antagonist activity of compounds binding to the glucocorticoid receptor may be determined by any of the assays.
3. Modulation of Tyrosine Aminotransferase (TAT) Induction in Rat Hepatoma Cells
Testing of compounds for agonist or antagonist activity in induction of tyrosine aminotransferase (TAT) in rat hepatoma cells.
H4-II-E-C3 cells were incubated overnight in 96 well plates (20,000 cells/100 μL/well) in MEM medium containing 10% heat inactivated FBS and 1% nonessential amino acids. On the next day, cells were stimulated with the indicated concentrations of dexamethasone or test compound (dissolved in DMSO, final DMSO concentration 0.2%) for 18 hours. Control cells were treated with 0.2% DMSO.

[2] = biological target: T1, human glucocorticoid receptor (GR) complex (Homo sapiens, UniProt P04150); test: Glucocorticoid receptor competitive binding assay (fluorescence polarization); conditions: competition with TAMRA-labeled dexamethasone
T1 construct: made in house; host or cells: insect expression system (baculovirus lysate)
T1 sequence (P04150 1-777): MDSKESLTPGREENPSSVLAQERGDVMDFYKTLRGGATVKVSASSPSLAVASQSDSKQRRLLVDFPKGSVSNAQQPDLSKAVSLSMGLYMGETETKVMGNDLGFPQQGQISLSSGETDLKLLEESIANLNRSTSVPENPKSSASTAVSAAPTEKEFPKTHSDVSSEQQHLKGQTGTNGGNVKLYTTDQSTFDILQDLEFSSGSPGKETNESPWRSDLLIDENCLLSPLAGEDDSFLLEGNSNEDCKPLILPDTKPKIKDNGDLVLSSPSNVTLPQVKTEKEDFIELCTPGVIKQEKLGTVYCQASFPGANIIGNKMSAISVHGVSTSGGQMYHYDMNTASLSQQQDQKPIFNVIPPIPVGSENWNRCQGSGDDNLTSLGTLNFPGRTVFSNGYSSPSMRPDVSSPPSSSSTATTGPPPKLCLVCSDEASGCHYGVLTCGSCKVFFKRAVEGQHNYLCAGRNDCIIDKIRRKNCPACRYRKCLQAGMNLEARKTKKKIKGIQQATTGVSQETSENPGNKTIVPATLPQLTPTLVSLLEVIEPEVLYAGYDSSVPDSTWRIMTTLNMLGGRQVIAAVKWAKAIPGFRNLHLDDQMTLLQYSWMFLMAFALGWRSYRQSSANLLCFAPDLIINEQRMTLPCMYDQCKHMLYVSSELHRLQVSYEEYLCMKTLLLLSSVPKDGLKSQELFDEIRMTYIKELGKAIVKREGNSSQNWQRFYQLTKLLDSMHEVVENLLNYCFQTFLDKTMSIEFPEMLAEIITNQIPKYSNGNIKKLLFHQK
Method: Compounds of the invention were evaluated for binding to the steroid receptor by a fluorescence polarization competitive binding assay. Detailed descriptions for preparation of recombinant glucocorticoid receptor (GR) complex used in the assay is described in U.S. provisional application No. 60/291,877, filed May 18, 2001, and incorporated herein by reference in its entirety. Preparation of the tetramethyl rhodamine (TAMRA)-labeled dexamethasone probe was accomplished using a standard literature procedure (M. Pons et al., J. Steroid Biochem., 1985, 22, pp. 267-273).
A. Glucocorticoid Receptor Competitive Binding Assay
Step 1. Characterization of the Fluorescent Probe
The wavelengths for maximum excitation and emission of the fluorescent probe should first be measured. An example of such a probe is rhodamine (TAMRA)-labeled dexamethasone.
The affinity of the probe for the steroid receptor was then determined in a titration experiment. The fluorescence polarization value of the probe in assay buffer was measured on an SLM-8100 fluorometer using the excitation and emission maximum values described above. Aliquots of expression vector lysate were added and fluorescence polarization was measured after each addition until no further change in polarization value was observed. Non-linear least squares regression analysis was used to calculate the dissociation constant of the probe from the polarization values obtained for lysate binding to the probe.
Step 2. Screeningfor Inhibitors of Probe Binding
This assay uses fluorescence polarization (FP) to quantitate the ability of test compounds to compete with tetramethyl rhodamine (TAMRA)-labeled dexamethasone for binding to a human glucocorticoid receptor (GR) complex prepared from an insect expression system. The assay buffer was: 10 mM TES, 50 mM KCl, 20 mM Na2MoO4.2H2O, 1.5 mM EDTA, 0.04% w/v CHAPS, 10% v/v glycerol, 1 mM dithiothreitol, pH 7.4. Test compounds were dissolved to 1 mM in neat DMSO and then further diluted to 10×assay concentration in assay buffer supplemented with 10% v/v DMSO. Test compounds were serially diluted at 10×assay concentrations in 10% DMSO-containing buffer in 96-well polypropylene plates. Binding reaction mixtures were prepared in 96-well black Dynex microtiter plates by sequential addition of the following assay components to each well: […] of 10×test compound solution, 85 μL of GR-containing baculovirus lysate diluted 1:170 in assay buffer, and 50 μL of 15 nM TAMRA-labeled dexamethasone. Positive controls were reaction mixtures containing no test compound; negative controls (blanks) were reaction mixtures containing 0.7 μM to 2 μM dexamethasone. The binding reactions were incubated for 1 hour at room temperature and then read for fluorescence polarization in the LJL Analyst set to 550 nm excitation and 580 nm emission, with the Rhodamine 561 dichroic mirror installed. IC50 values were determined by iterative non-linear curve fitting of the FP signal data to a 4-parameter logistic equation.

Row | IC50 [2] | Structure (SMILES) | activity as agonists of the glucocorticoid receptor function [1]
1 | – | COc1ccc(F)cc1C(C)(C)CC(O)(Cc1cc(Cl)cc(Cl)c1Cl)C(F)(F)F (stereo not drawn) [1,1,1-Trifluoro-4-(5-fluoro-2-methoxyphenyl)-4-methyl-2-(2,3,5-trichlorobenzyl)pentan-2-ol] | activity as agonists
2 | – | COc1ccc(F)cc1C(C)(C)CC(O)(Cc1ccc(/C(C)=N/O)cc1Cl)C(F)(F)F (stereo not drawn) [1-{3-Chloro-4-[4-(5-fluoro-2-methoxyphenyl)-2-hydroxy-4-methyl-2-trifluoromethylpentyl]phenyl}ethanone oxime] | activity as agonists
3 | – | COc1ccc(F)cc1C(C)(C)CC(O)(Cc1ccc(C(C)=O)cc1Cl)C(F)(F)F (stereo not drawn) [1-{3-Chloro-4-[4-(5-fluoro-2-methoxyphenyl)-2-hydroxy-4-methyl-2-trifluoromethylpentyl]phenyl}ethanone] | activity as agonists
4 | – | COc1ccc(F)cc1C(C)(C)CC(O)(Cc1ccc(CO)cc1Cl)C(F)(F)F (stereo not drawn) [2-(2-Chloro-4-hydroxymethylbenzyl)-1,1,1-trifluoro-4-(5-fluoro-2-methoxyphenyl)-4-methylpentan-2-ol] | activity as agonists
5 | – | COc1ccc(F)cc1C(C)(C)CC(O)(Cc1ccc(Cl)c(Cl)c1)C(F)(F)F (stereo not drawn) [2-(3,4-Dichlorobenzyl)-1,1,1-trifluoro-4-(5-fluoro-2-methoxyphenyl)-4-methylpentan-2-ol] | activity as agonists
6 | – | CC(C)(CC(O)(Cc1cc(C(F)(F)F)cc(Cl)c1F)C(F)(F)F)c1cc([N+](=O)[O-])cc2c1OCC2 (stereo not drawn) [2-(3-Chloro-2-fluoro-5-trifluoromethylbenzyl)-1,1,1-trifluoro-4-methyl-4-(5-nitro-2,3-dihydrobenzofuran-7-yl)pentan-2-ol] | activity as agonists
7 | – | COc1ccc(F)cc1C(C)(C)CC(O)(Cc1ccc(Cl)cc1)C(F)(F)F (stereo not drawn) [2-(4-Chlorobenzyl)-1,1,1-trifluoro-4-(5-fluoro-2-methoxyphenyl)-4-methylpentan-2-ol] | activity as agonists
8 | – | Cc1cc(Br)cc(CC(O)(CC(C)(C)c2cc(F)ccc2O)C(F)(F)F)c1F (stereo not drawn) [2-[3-(5-Bromo-2-fluoro-3-methylbenzyl)-4,4,4-trifluoro-3-hydroxy-1,1-dimethylbutyl]-4-fluorophenol] | activity as agonists
9 | – | Cc1cc(C)c(C#N)c(CC(O)(CC(C)(C)c2cc(F)ccc2O)C(F)(F)F)c1 (stereo not drawn) [2-[4-(5-Fluoro-2-hydroxyphenyl)-2-hydroxy-4-methyl-2-trifluoromethylpentyl]-4,6-dimethylbenzonitrile] | activity as agonists
10 | – | COc1ccc(F)cc1C(C)(C)CC(O)(Cc1cc(C)cc(C)c1C#N)C(F)(F)F (stereo not drawn) [2-[4-(5-Fluoro-2-methoxyphenyl)-2-hydroxy-4-methyl-2-trifluoromethylpentyl]-4,6-dimethylbenzonitrile] | activity as agonists
11 | – | Cc1cccc(C(C)(C)CC(O)(Cc2ccc(C#N)cc2Cl)C(F)(F)F)c1 (stereo not drawn) [3-Chloro-4-(2-hydroxy-4-methyl-4-m-tolyl-2-trifluoromethylpentyl)benzonitrile] | activity as agonists
12 | – | CC(C)(CC(O)(Cc1ccc(C#N)cc1Cl)C(F)(F)F)c1ccc2ccccc2c1 (stereo not drawn) [3-Chloro-4-(2-hydroxy-4-methyl-4-naphthalen-2-yl-2-trifluoromethylpentyl)benzonitrile] | activity as agonists
13 | – | Cc1ccccc1C(C)(C)CC(O)(Cc1ccc(C#N)cc1Cl)C(F)(F)F (stereo not drawn) [3-Chloro-4-(2-hydroxy-4-methyl-4-o-tolyl-2-trifluoromethylpentyl)benzonitrile] | activity as agonists
14 | ≤ 100 nM | COc1ccc(F)cc1C(C)(C)CC(O)(Cc1ccc(C#N)cc1)C(F)(F)F (stereo not drawn) [4-[4-(5-Fluoro-2-methoxyphenyl)-2-hydroxy-4-methyl-2-trifluoromethylpentyl]benzonitrile] | –
15 | ≤ 100 nM | CC(C)(CC(O)(Cc1cc(C(F)(F)F)cc(Cl)c1F)C(F)(F)F)c1cc(C#N)cc2c1OCC2 (stereo not drawn) [7-[3-(3-Chloro-2-fluoro-5-trifluoromethylbenzyl)-4,4,4-trifluoro-3-hydroxy-1,1-dimethylbutyl]-2,3-dihydrobenzofuran-5-carbonitrile] | –
